In ChEMBL document CHEMBL5244223, “l,8-Naphthalimide based DNA intercalators and anticancer agents. A systematic review from 2007 to 2017” (Eur J Med Chem, 2018):
Values after ≈ are worked out from the molar mass of the structure shown. One block for each molecule: values may come before it.

Legend:
U-937 = assay: Cytotoxicity against human U-937 cells assessed as inhibition of cell growth incubated for 96 hrs by MTT assay; assay type: functional, cell-based; conditions: U-937, 96 h
HL-60 [1] = assay: Cytotoxicity against human HL-60 cells assessed as inhibition of cell growth incubated for 96 hrs by MTT assay; assay type: functional, cell-based; conditions: HL-60, 96 h
Calf thymus DNA [2] = assay: Binding affinity to calf thymus DNA assessed as DNA intercalation by measuring change in melting temperature by thermal denaturation assay based UV-Vis spectrophotometric analysis; assay type: nucleic-acid assay; conditions: Bos taurus
MCF7 [3] = assay: Antiproliferative activity against human MCF7 cells assessed as inhibition of cell proliferation; assay type: functional, cell-based
HT-29 = assay: Antiproliferative activity against human HT-29 cells assessed as inhibition of cell proliferation; assay type: functional, cell-based
HCT-116 = assay: Cytotoxicity against human HCT-116 cells assessed as inhibition of cell growth incubated for 24 hrs by XTT assay; assay type: functional, cell-based; conditions: HCT-116, 24 h
PANC-1 = assay: Cytotoxicity against human PANC-1 cells assessed as inhibition of cell growth incubated for 24 hrs by XTT assay; assay type: functional, cell-based; conditions: PANC-1, 24 h
MCF7 [4] = assay: Cytotoxicity against human MCF7 cells assessed as inhibition of cell growth incubated for 24 hrs by CCK-8 assay; assay type: functional, cell-based; conditions: MCF7, 24 h
HeLa [5] = assay: Cytotoxicity against human HeLa cells assessed as inhibition of cell growth incubated for 48 hrs by MTT spectrophotometric assay; assay type: functional, cell-based
SGC-7901 = assay: Cytotoxicity against human SGC-7901 cells assessed as inhibition of cell growth incubated for 48 hrs by MTT spectrophotometric assay; assay type: functional, cell-based; conditions: SGC-7901, 48 h
A549 [6] = assay: Cytotoxicity against human A549 cells assessed as inhibition of cell growth incubated for 48 hrs by MTT spectrophotometric assay; assay type: functional, cell-based; conditions: A549, 48 h
Calf thymus DNA [7] = assay: Binding affinity to calf thymus DNA assessed as binding constant by UV-Vis spectroscopic analysis; assay type: nucleic-acid assay; conditions: Bos taurus
Pseudomonas aeruginosa = assay: Antibacterial activity against Pseudomonas aeruginosa MTCC 741 assessed as inhibition of bacterial growth by agar well diffusion assay; assay type: functional
Escherichia coli = assay: Antibacterial activity against Escherichia coli MTCC 443 assessed as inhibition of bacterial growth by agar well diffusion assay; assay type: functional
Calf thymus DNA [8] = assay: Binding affinity to calf thymus DNA assessed as DNA intercalation by measuring change in melting temperature by thermal denaturation assay; assay type: nucleic-acid assay; conditions: Bos taurus
A2780 = assay: Cytotoxicity against human A2780 cells assessed as inhibition of cell growth incubated for 72 hrs by SRB assay; assay type: functional, cell-based; conditions: A2780, 72 h
[9] = test system: Staphylococcus epidermidis; assay: Antibacterial activity against Staphylococcus epidermidis MTCC 435 assessed as inhibition of bacterial growth by agar well diffusion assay; assay type: functional
Staphylococcus aureus = assay: Antibacterial activity against Staphylococcus aureus MTCC 96 assessed as inhibition of bacterial growth by agar well diffusion assay; assay type: functional
Calf thymus DNA [10] = assay: Binding affinity to calf thymus DNA assessed as binding constant by fluorescence based EtBr-displacement based UV-Vis spectroscopic analysis; assay type: nucleic-acid assay; conditions: Bos taurus
HeLa [11] = assay: Antiproliferative activity against human HeLa cells assessed as inhibition of cell growth; assay type: functional, cell-based
A549 [12] = assay: Antiproliferative activity against human A549 cells assessed as inhibition of cell growth; assay type: functional, cell-based
HL-60 [13] = assay: Antiproliferative activity against human HL-60 cells assessed as inhibition of cell growth; assay type: functional, cell-based

SMILES: O=C1c2cccc3c([N+](=O)[O-])ccc(c23)C(=O)N1CCCl
IC50 (U-937): 0.3 µM
IC50 (HL-60 [1]): 0.3 µM

ΔTm (Calf thymus DNA [2]): 3 °C
IC50 (MCF7 [3]): 4.6 µM
IC50 (HT-29): 4.6 µM
SMILES: CCSc1ccc2c3c(cccc13)C(=O)N(CCCn1cc[n+](C)c1)C2=O

SMILES: CN(C)CCN1C(=O)c2cccc3c(N(CCCl)CCCl)ccc(c23)C1=O
IC50 (HCT-116): 1.9 µM
IC50 (PANC-1): 1.9 µM

SMILES: CN(C)CCCNc1ccc2c3c(cccc13)C(=O)N(CCCN(C)C)C2=O
IC50 (MCF7 [4]): 2.04 µM

Kb (Calf thymus DNA [7]): 0.47 10^5/M
SMILES: CN(C)CCN1C(=O)c2cccc3c(N4CCN(CCO)CC4)ccc(c23)C1=O
IC50 (HeLa [5]): < 7 µM
IC50 (SGC-7901): < 7 µM
IC50 (A549 [6]): < 7 µM

MIC (Pseudomonas aeruginosa): 18.8 µg/mL (≈ 26 µM)
MIC (Escherichia coli): 18.8 µg/mL (≈ 26 µM)
ΔTm (Calf thymus DNA [8]): 0.1 °C
MIC [9]: 18.8 µg/mL (≈ 26 µM)
MIC (Staphylococcus aureus): 18.8 µg/mL (≈ 26 µM)
SMILES: O=C1c2ccc3c4c(ccc(c24)C(=O)N1c1nc(-c2cc4ccccc4oc2=O)cs1)C(=O)N(c1nc(-c2cc4ccccc4oc2=O)cs1)C3=O
IC50 (A2780): < 0.1 µM

ΔTm (Calf thymus DNA [2]): 3 °C
IC50 (MCF7 [3]): 4.6 µM
IC50 (HT-29): 4.6 µM
SMILES: CC[n+]1ccn(CCCN2C(=O)c3cccc4cccc(c34)C2=O)c1

SMILES: CN(C)CCCN1C(=O)c2cccc3c(NCCN)ccc(c23)C1=O
IC50 (MCF7 [4]): 56.6 µM

K (Calf thymus DNA [10]): 1.7 10^7/M
SMILES: O=C1c2cccc3c([N+](=O)[O-])ccc(c23)C(=O)N1c1ccc(-c2cc[n+]3c(c2)-c2cccc[n+]2CC3)cc1

SMILES: CN(C)CCN1C(=O)c2cccc3c(N(C)CCCl)ccc(c23)C1=O
IC50 (HCT-116): 1.9 µM
IC50 (PANC-1): 1.9 µM

ΔTm (Calf thymus DNA [2]): 3 °C
IC50 (MCF7 [3]): 4.6 µM
IC50 (HT-29): 4.6 µM
SMILES: O=C1c2cccc3cccc(c23)C(=O)N1CCCn1cc[n+](Cc2ccccc2)c1

MIC (Pseudomonas aeruginosa): 18.8 µg/mL (≈ 24 µM)
MIC (Escherichia coli): 18.8 µg/mL (≈ 24 µM)
ΔTm (Calf thymus DNA [8]): 0.1 °C
MIC [9]: 18.8 µg/mL (≈ 24 µM)
MIC (Staphylococcus aureus): 18.8 µg/mL (≈ 24 µM)
SMILES: COc1cccc2cc(-c3csc(N4C(=O)c5ccc6c7c(ccc(c57)C4=O)C(=O)N(c4nc(-c5cc7cccc(OC)c7oc5=O)cs4)C6=O)n3)c(=O)oc12
IC50 (A2780): < 0.1 µM

Kb (Calf thymus DNA [7]): 0.47 10^5/M
SMILES: CN(C)CCN1C(=O)c2cccc3c(N4CCN(CCCO)CC4)ccc(c23)C1=O
IC50 (HeLa [5]): < 7 µM
IC50 (SGC-7901): < 7 µM
IC50 (A549 [6]): < 7 µM

SMILES: O=C1c2cccc3c([N+](=O)[O-])ccc(c23)C(=O)N1CCO
IC50 (U-937): 0.7 µM
IC50 (HL-60 [1]): 0.7 µM

ΔTm (Calf thymus DNA [8]): 11.8 °C
IC50 (HeLa [11]): 13.1 µM
IC50 (A549 [12]): 3.16 µM
IC50 (HL-60 [13]): 13.1 µM
SMILES: CN(C)CCN1C(=O)c2cccc3c(NCCNCCN)ccc(c23)C1=O

ΔTm (Calf thymus DNA [8]): 11.8 °C
IC50 (HeLa [11]): 13.1 µM
IC50 (A549 [12]): 13.1 µM
IC50 (HL-60 [13]): 13.1 µM
SMILES: CN(C)CCN1C(=O)c2cccc3c(NCCNCCNCCNCCN)ccc(c23)C1=O

SMILES: O=C1c2cccc3c([N+](=O)[O-])ccc(c23)C(=O)N1CCCO
IC50 (U-937): 0.7 µM
IC50 (HL-60 [1]): 0.7 µM
